Common to all, as to test: relative viability (nuclei count vs DMSO), 5 days (fraction); higher = more cells survive
Compound in the test “BMX-IN-1 + Linsitinib”: C=CC(=O)Nc1cc(-n2c(=O)ccc3cnc4ccc(-c5ccc(NS(C)(=O)=O)cc5)cc4c32)ccc1C [BMX-IN-1] + C[C@]1(O)C[C@@H](c2nc(-c3ccc4ccc(-c5ccccc5)nc4c3)c3c(N)nccn32)C1 [Linsitinib] (partner 1 µM)
In a few lines:
(§1)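 Relative viability equals treated-well nuclei counts divided by vehicle-well nuclei counts. Counts came from 4× images of lung cancer cell lines grown in 1536-well plates for 5 days after pin-tool dosing on the day after seeding. Dosing used one drug alone or a fixed anchor-drug dose plus five library-drug doses (not always all listed) in √10 steps, and values are medians of duplicate plates.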

Compound in the test “PAC-1 + AZD7762”: C=CCc1cccc(/C=N/NC(=O)CN2CCN(Cc3ccccc3)CC2)c1O [PAC-1] + NC(=O)Nc1cc(-c2cccc(F)c2)sc1C(=O)N[C@H]1CCCNC1 [AZD7762] (partner 0.2 µM)
In short, it runs like this: as §1

Compound in the test “PAC-1 + Luminespib”: C=CCc1cccc(/C=N/NC(=O)CN2CCN(Cc3ccccc3)CC2)c1O [PAC-1] + CCNC(=O)c1noc(-c2cc(C(C)C)c(O)cc2O)c1-c1ccc(CN2CCOCC2)cc1 [Luminespib] (partner 0.01 µM)
In a few lines: as §1

Compound in the test “PAC-1 + Pemetrexed”: C=CCc1cccc(/C=N/NC(=O)CN2CCN(Cc3ccccc3)CC2)c1O [PAC-1] + Nc1nc2[nH]cc(CCc3ccc(C(=O)N[C@@H](CCC(=O)O)C(=O)O)cc3)c2c(=O)[nH]1 [Pemetrexed] (partner 0.2 µM)
In a few lines:
as §1

Compound in the test “PAC-1 + OSI-027”: C=CCc1cccc(/C=N/NC(=O)CN2CCN(Cc3ccccc3)CC2)c1O [PAC-1] + COc1cccc2cc(-c3nc([C@H]4CC[C@H](C(=O)O)CC4)n4ncnc(N)c34)[nH]c12 [OSI-027] (partner 0.5 µM)
In short, it runs like this: as §1

Take NCI-H838: the relative viability in the test with BMX-IN-1 + Linsitinib (first compound 0.02 µM) came to 1.19; with BMX-IN-1 + Linsitinib (first compound 0.2 µM), 1.26; in the test with BMX-IN-1 + Linsitinib (first compound 0.6325 µM), 1.2; with BMX-IN-1 + Linsitinib (first compound 2 µM), 1.08; in the test with PAC-1 + AZD7762 (first compound 0.02 µM), 0.972; with PAC-1 + AZD7762 (first compound 0.06325 µM), 0.964. The relative viability with PAC-1 + AZD7762 (first compound 0.2 µM) stood at 0.936; with PAC-1 + AZD7762 (first compound 2 µM) it was 0.925; in the test with PAC-1 + Luminespib (first compound 0.02 µM) it was 0.254; with PAC-1 + Luminespib (first compound 0.06325 µM) it was 0.374; with PAC-1 + Luminespib (first compound 0.2 µM) it was 0.238; with PAC-1 + Luminespib (first compound 2 µM) it was 0.301. Also, the relative viability in the test with PAC-1 + Pemetrexed (first compound 0.02 µM) worked out at 0.22; with PAC-1 + Pemetrexed (first compound 0.06325 µM) it was 0.235; with PAC-1 + Pemetrexed (first compound 0.2 µM), 0.238; with PAC-1 + Pemetrexed (first compound 2 µM) it was 0.206; with PAC-1 + OSI-027 (first compound 0.02 µM) it was 0.359; in the test with PAC-1 + OSI-027 (first compound 0.06325 µM), 0.386. Further, the relative viability is 0.373 with PAC-1 + OSI-027 (first compound 0.2 µM) and 0.398 with PAC-1 + OSI-027 (first compound 2 µM).
NCI-H1355: the relative viability with BMX-IN-1 + Linsitinib (first compound 0.02 µM) amounted to 0.873; with BMX-IN-1 + Linsitinib (first compound 0.2 µM) it was 0.827; with BMX-IN-1 + Linsitinib (first compound 0.6325 µM), 0.867; in the test with BMX-IN-1 + Linsitinib (first compound 2 µM), 0.853; with PAC-1 + AZD7762 (first compound 0.02 µM) it was 0.634; in the test with PAC-1 + AZD7762 (first compound 0.06325 µM), 0.721. For the same cell line, the relative viability with PAC-1 + AZD7762 (first compound 0.2 µM) is 0.795; in the test with PAC-1 + AZD7762 (first compound 2 µM), 0.785; with PAC-1 + Luminespib (first compound 0.02 µM), 0.762; with PAC-1 + Luminespib (first compound 0.06325 µM), 0.668; with PAC-1 + Luminespib (first compound 0.2 µM), 0.797; with PAC-1 + Luminespib (first compound 2 µM) it was 0.778. Also, the relative viability with PAC-1 + Pemetrexed (first compound 0.02 µM) was determined as 1.01; in the test with PAC-1 + Pemetrexed (first compound 0.06325 µM) it was 1.06; with PAC-1 + Pemetrexed (first compound 0.2 µM) it was 1.01; with PAC-1 + Pemetrexed (first compound 2 µM) it was 1.11; with PAC-1 + OSI-027 (first compound 0.02 µM), 0.403; with PAC-1 + OSI-027 (first compound 0.06325 µM), 0.436. Further, the relative viability with PAC-1 + OSI-027 (first compound 0.2 µM) worked out at 0.404; in the test with PAC-1 + OSI-027 (first compound 2 µM), 0.438.
As for NCI-H1395, the relative viability was found to be 0.975 with BMX-IN-1 + Linsitinib (first compound 0.02 µM); 1 in the test with BMX-IN-1 + Linsitinib (first compound 0.2 µM); 1.11 with BMX-IN-1 + Linsitinib (first compound 0.6325 µM); 1.08 in the test with BMX-IN-1 + Linsitinib (first compound 2 µM); 0.427 with PAC-1 + AZD7762 (first compound 0.02 µM); 0.415 in the test with PAC-1 + AZD7762 (first compound 0.06325 µM). Moreover, the relative viability with PAC-1 + AZD7762 (first compound 0.2 µM) turned out to be 0.352; with PAC-1 + AZD7762 (first compound 2 µM), 0.381; with PAC-1 + Luminespib (first compound 0.02 µM), 0.656; with PAC-1 + Luminespib (first compound 0.06325 µM) it was 0.585; in the test with PAC-1 + Luminespib (first compound 0.2 µM), 0.651; with PAC-1 + Luminespib (first compound 2 µM) it was 0.653. The relative viability with PAC-1 + Pemetrexed (first compound 0.02 µM) came out at 0.868; in the test with PAC-1 + Pemetrexed (first compound 0.06325 µM), 0.799; with PAC-1 + Pemetrexed (first compound 0.2 µM), 0.781; in the test with PAC-1 + Pemetrexed (first compound 2 µM), 0.923; in the test with PAC-1 + OSI-027 (first compound 0.02 µM), 0.66; in the test with PAC-1 + OSI-027 (first compound 0.06325 µM), 0.603. Moreover, the figures for the relative viability with PAC-1 + OSI-027 (first compound 0.2 µM) and with PAC-1 + OSI-027 (first compound 2 µM) were 0.667 and 0.54, respectively.
As for NCI-H1437, the relative viability was determined as 1.35 with BMX-IN-1 + Linsitinib (first compound 0.02 µM); 1.21 in the test with BMX-IN-1 + Linsitinib (first compound 0.2 µM); 1.14 with BMX-IN-1 + Linsitinib (first compound 0.6325 µM); 1.03 with BMX-IN-1 + Linsitinib (first compound 2 µM); 1.11 with PAC-1 + AZD7762 (first compound 0.02 µM); 1.09 with PAC-1 + AZD7762 (first compound 0.06325 µM). Moreover, the relative viability with PAC-1 + AZD7762 (first compound 0.2 µM) stood at 1.12; in the test with PAC-1 + AZD7762 (first compound 2 µM) it was 0.844; in the test with PAC-1 + Luminespib (first compound 0.02 µM), 1.15; in the test with PAC-1 + Luminespib (first compound 0.06325 µM), 1.13; with PAC-1 + Luminespib (first compound 0.2 µM), 1.06; with PAC-1 + Luminespib (first compound 2 µM), 0.907. The relative viability in the test with PAC-1 + Pemetrexed (first compound 0.02 µM) is 0.31; with PAC-1 + Pemetrexed (first compound 0.06325 µM), 0.32; with PAC-1 + Pemetrexed (first compound 0.2 µM) it was 0.305; with PAC-1 + Pemetrexed (first compound 2 µM), 0.3; with PAC-1 + OSI-027 (first compound 0.02 µM), 0.893; with PAC-1 + OSI-027 (first compound 0.06325 µM) it was 0.867. Further, the relative viability with PAC-1 + OSI-027 (first compound 0.2 µM) stood at 0.82; in the test with PAC-1 + OSI-027 (first compound 2 µM) it was 0.762.
In the case of NCI-H1651, the relative viability with BMX-IN-1 + Linsitinib (first compound 0.02 µM) is 1.22; in the test with BMX-IN-1 + Linsitinib (first compound 0.2 µM) it was 0.885; with BMX-IN-1 + Linsitinib (first compound 0.6325 µM), 0.912; in the test with BMX-IN-1 + Linsitinib (first compound 2 µM), 0.86; with PAC-1 + AZD7762 (first compound 0.02 µM), 0.44; with PAC-1 + AZD7762 (first compound 0.06325 µM), 0.358. Besides, the relative viability with PAC-1 + AZD7762 (first compound 0.2 µM) was 0.447; with PAC-1 + AZD7762 (first compound 2 µM), 0.467; in the test with PAC-1 + Luminespib (first compound 0.02 µM), 0.789; in the test with PAC-1 + Luminespib (first compound 0.06325 µM) it was 0.859; in the test with PAC-1 + Luminespib (first compound 0.2 µM), 0.744; with PAC-1 + Luminespib (first compound 2 µM) it was 0.905. Also, the relative viability is 0.596 with PAC-1 + Pemetrexed (first compound 0.02 µM); 0.538 in the test with PAC-1 + Pemetrexed (first compound 0.06325 µM); 0.525 with PAC-1 + Pemetrexed (first compound 0.2 µM); 0.712 with PAC-1 + Pemetrexed (first compound 2 µM); 0.766 with PAC-1 + OSI-027 (first compound 0.02 µM); 0.744 in the test with PAC-1 + OSI-027 (first compound 0.06325 µM). For the same cell line, the figures for the relative viability in the test with PAC-1 + OSI-027 (first compound 0.2 µM) and in the test with PAC-1 + OSI-027 (first compound 2 µM) were 0.64 and 0.612, respectively.
As to NCI-H1666, the relative viability with BMX-IN-1 + Linsitinib (first compound 0.02 µM) was 0.872; with BMX-IN-1 + Linsitinib (first compound 0.2 µM), 0.891; in the test with BMX-IN-1 + Linsitinib (first compound 0.6325 µM), 0.797; with BMX-IN-1 + Linsitinib (first compound 2 µM), 0.595; with PAC-1 + AZD7762 (first compound 0.02 µM), 0.905; with PAC-1 + AZD7762 (first compound 0.06325 µM), 0.816. The relative viability was determined as 0.896 in the test with PAC-1 + AZD7762 (first compound 0.2 µM); 0.809 in the test with PAC-1 + AZD7762 (first compound 2 µM); 0.981 with PAC-1 + Luminespib (first compound 0.02 µM); 1.08 with PAC-1 + Luminespib (first compound 0.06325 µM); 1.08 with PAC-1 + Luminespib (first compound 0.2 µM); 0.864 in the test with PAC-1 + Luminespib (first compound 2 µM). Also, the relative viability with PAC-1 + Pemetrexed (first compound 0.02 µM) came out at 0.643; in the test with PAC-1 + Pemetrexed (first compound 0.06325 µM) it was 0.889; in the test with PAC-1 + Pemetrexed (first compound 0.2 µM) it was 0.849; in the test with PAC-1 + Pemetrexed (first compound 2 µM), 0.799; with PAC-1 + OSI-027 (first compound 0.02 µM), 0.848; with PAC-1 + OSI-027 (first compound 0.06325 µM), 0.866. In addition, the results for the relative viability in the test with PAC-1 + OSI-027 (first compound 0.2 µM) and in the test with PAC-1 + OSI-027 (first compound 2 µM) were 0.777 and 0.849, respectively.
NCI-H1734: the relative viability was 1.02 with BMX-IN-1 + Linsitinib (first compound 0.02 µM); 0.982 in the test with BMX-IN-1 + Linsitinib (first compound 0.2 µM); 0.981 in the test with BMX-IN-1 + Linsitinib (first compound 0.6325 µM); 0.902 with BMX-IN-1 + Linsitinib (first compound 2 µM); 0.515 with PAC-1 + AZD7762 (first compound 0.02 µM); 0.615 in the test with PAC-1 + AZD7762 (first compound 0.06325 µM). Also, the relative viability with PAC-1 + AZD7762 (first compound 0.2 µM) stood at 0.532; with PAC-1 + AZD7762 (first compound 2 µM) it was 0.546; with PAC-1 + Luminespib (first compound 0.02 µM) it was 0.169; with PAC-1 + Luminespib (first compound 0.06325 µM), 0.178; in the test with PAC-1 + Luminespib (first compound 0.2 µM), 0.18; in the test with PAC-1 + Luminespib (first compound 2 µM), 0.189. Moreover, the relative viability with PAC-1 + Pemetrexed (first compound 0.02 µM) is 0.379; with PAC-1 + Pemetrexed (first compound 0.06325 µM), 0.427; in the test with PAC-1 + Pemetrexed (first compound 0.2 µM), 0.418; with PAC-1 + Pemetrexed (first compound 2 µM) it was 0.419; with PAC-1 + OSI-027 (first compound 0.02 µM) it was 0.607; in the test with PAC-1 + OSI-027 (first compound 0.06325 µM) it was 0.589. In addition, the relative viability in the test with PAC-1 + OSI-027 (first compound 0.2 µM) was 0.522; with PAC-1 + OSI-027 (first compound 2 µM), 0.642.

(Values after the supplement of paper PMC10307832.)
